Measurements: paper PMC12469269, “Investigating SMR Peptide Interactions with Breast Cancer-Associated Proteins” (International Journal of Molecular Sciences, 2025)

Test system: Jurkat T cells
Assay: EV secretion, Nef-GFP (Figure 6A), Jurkat T cells
Type: cell-based
Settings: 349.6 nM SMRwt-CPP or 357.27 nM VIMwt-CPP, 24 h
Experimental: To investigate whether SMRwt and VIMwt peptides can suppress extracellular vesicle (EV) secretion, Jurkat T cells were co-transfected with wild-type Nef-GFP and treated with either SMRwt-CPP (349.6 nM) or VIMwt-CPP (357.27 nM) peptides. GFP fluorescence in the culture media was used as a proxy for Nef-associated EV release after 24 h of incubation.
Figure 6 SMRwt and VIMwt peptides decrease extracellular vesicle secretion in Jurkat T cells and breast cancer cells. (A) Jurkat T cells were co-transfected with 1 µg of wild-type Nef-GFP plasmid and treated with either 349.6 nM SMRwt-CPP or 357.27 nM VIMwt-CPP peptides. After 24 h at 37 °C, culture media were collected and assayed for extracellular vesicle (EV) secretion using GFP fluorescence as a proxy. (B,C) MDA-MB-231 and MCF-7 breast cancer cells were treated with either 349.6 nM SMRwt-CPP or 357.27 nM VIMwt-CPP peptides for 24 h at 37 °C. Cells were then labeled with 5 µM N-Rh-PE at 4 °C for 1 h, washed, and incubated in fresh media for an additional 24 h. Supernatants were assayed for EV secretion using N-Rh-PE fluorescence. Bar graphs show relative EV levels. Data represent mean ± SD from three independent experiments. Statistical comparisons were performed using appropriate tests; p-values are indicated. […]

H-LYEEEMREGRKKRRQRRRPPQ - OH [VIMwt-CPP]
p, peptide vs Nef-GFP alone, EV secretion: < 0.0006
